Measurements reported in patent US11083729B2, “Methods of treating cancer with small molecule NF-κB inhibitors” (ImmuneTarget, Inc., priority 2017, dated 2021).

Experiments:
c-Rel protein = biological target: T1, c-Rel protein (Homo sapiens, UniProt Q04864); test: Electrophoretic Mobility Shift Assay (EMSA), c-Rel binding to CD28RE oligonucleotide; conditions: 10 nM c-Rel protein
T1 sequence (Q04864 1-619): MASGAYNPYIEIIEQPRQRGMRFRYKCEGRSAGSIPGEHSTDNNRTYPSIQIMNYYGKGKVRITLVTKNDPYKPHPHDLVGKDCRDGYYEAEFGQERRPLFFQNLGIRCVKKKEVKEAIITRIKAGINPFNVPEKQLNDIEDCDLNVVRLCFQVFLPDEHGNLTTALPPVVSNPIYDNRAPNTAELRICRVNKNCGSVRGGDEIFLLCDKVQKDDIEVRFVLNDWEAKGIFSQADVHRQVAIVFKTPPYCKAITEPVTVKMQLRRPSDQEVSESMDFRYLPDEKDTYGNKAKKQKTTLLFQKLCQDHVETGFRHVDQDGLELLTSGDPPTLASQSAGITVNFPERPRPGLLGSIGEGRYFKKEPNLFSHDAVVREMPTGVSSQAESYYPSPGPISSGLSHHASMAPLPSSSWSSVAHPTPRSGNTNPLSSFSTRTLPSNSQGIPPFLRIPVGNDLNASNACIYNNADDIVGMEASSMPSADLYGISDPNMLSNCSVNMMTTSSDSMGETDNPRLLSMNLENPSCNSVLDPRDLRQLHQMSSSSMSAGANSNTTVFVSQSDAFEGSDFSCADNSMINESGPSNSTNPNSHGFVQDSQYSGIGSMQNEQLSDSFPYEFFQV
Experimental: DNA binding reaction (20 μL) was carried out in 1×DNA Binding Buffer (10 mM Tris, 40 mM NaCl, 1 mM EDTA, 4% glycerol) with 10 nM c-Rel protein and 0.5 ng phosphor-labeled CD28RE oligonucleotide for 10 minutes at room temperature in 96-well plates. Test compounds, in serial dilutions, were added into each well, and further incubated for 15 minutes before loading onto native 5% polyacrylamide gel. Electrophoresis proceeded for 2.5 hours at 160V. Radioactive signals were quantified using Phospho-Imager. IC50 of compounds of example 1 to 75 were determined by quantifying the intensity of Rel/NF-κB inhibition in EMSA using phospho-imager. An example of EMSA data of the present invention is shown for compound 6 in FIG. 2.

NF-κB = NF-κB GFP assay in NFκB/Jurkat/GFP transcriptional reporter cells stimulated with TNF-α; type: cell-based; conditions: Homo sapiens, TNF-α 5 ng/ml, 24 hours, read-out: NF-KB GFP IC50
Experimental: NFκB/Jurkat/GFP transcriptional reporter cell line was obtained from SBI System Biosciences. NF-κB/Jurkat/GFP™ Reporter cells (5×10^5 cells) were plated at a concentration of 1 million cells/ml into each well of a 24-well plate. TNF-α (5 ng/ml) was added. Compounds were added via serial dilutions to corresponding wells. After 24 hours, 100 μl of the cells were transferred to a well of a Costar® UV plate (96 well, No lid, w/UV Transparent Flat Bottom, Corning, N.Y., Cat #3635) and the intensity of GFP fluorescence was measured (Excitation 485+/−20, Emission 528+/−20) in a Synergy™ HT Multi-Detection Microplate Reader (BioTech, Winooski, Vt.). The intensities of GFP measured were plotted against the […].

Capan-1 = test: CellTiter-Glo IG50, Example 8, Capan-1; type: cell-based; conditions: Homo sapiens, Capan-1, 72 hours
Experimental: (§1) Various pancreatic, liver, colon, breast, and stomach cancer cell lines were exposed to the NF-κB inhibitors of the present invention, including, for example, IT-839, IT-843, IT-848, and IT-878, and assessed for IG50 in the CellTiter Glo 2.0 assay.
(§2) The cells were cultured in an atmosphere of 37° C., 5% CO2 and 95% humidity. All culture media and FBS were purchased from GIBCO, Hyclone or Sigma, USA. The media used for cell culture is described in the table below.
(§3) The cells were harvested during the logarithmic growth period and counted. Cell concentrations were adjusted to the appropriate number in appropriate medium and 90 μl cell suspensions were added to 96-well plates. When cells were added, the plates were shaken gently to distribute the cells evenly. Cells were incubated at 37° C. and 5% CO2.
(§4) 3× serial dilutions of test compound stock solutions with respective solvents were prepared. The stock solutions were diluted with culture medium to generate 10× working solutions of the test compounds. 10 μl of the 10× test compound solutions were added to each well in triplicate for each concentration. Plates were incubated for 72 hours in a humidified incubator at 37° C. and 5% CO2.
(§5) CellTiter-Glo (CTG) solution was thawed and equilibrated to room temperature. 50 μl of CTG were added to each well and the contents were mixed for 2 minutes on a plate shaker. Cells were incubated for 10 minutes before luminescence signal was recorded using Envision.
(§6) Cell viability was plotted with GraphPad Prism version 5 and the IG50 was calculated for each cell line. The graphical curves were fitted using a nonlinear regression model with a sigmoidal dose response. IG50 is the concentration of test drug where 100×T/C=50 (the optical density of the test well after a 3-day period of exposure to test drug is T; the control optical density is C).

PANC-1 = test: CellTiter-Glo IG50, Example 8, PANC-1; type: cell-based; conditions: Homo sapiens, PANC-1, 72 hours
Experimental: as §1, §2, §3, §4, §5, §6

MIAPACA-2 = test: CellTiter-Glo IG50, Example 8, MIAPACA-2; type: cell-based; conditions: Homo sapiens, MIA PaCa-2, MIAPACA-2, 72 hours
Experimental: as §1, §2, §3, §4, §5, §6

PLC/PRF/5 [1] = test: CellTiter-Glo IG50, Example 8, PLC/PRF/5; type: cell-based; conditions: Homo sapiens, PLC/PRF/5, 72 hours
Experimental: as §1, §2, §3, §4, §5, §6

HepG2 [2] = test: CellTiter-Glo IG50, Example 8, HepG2; type: cell-based; conditions: Homo sapiens, HepG2, 72 hours
Experimental: as §1, §2, §3, §4, §5, §6

Hep3B [3] = test: CellTiter-Glo IG50, Example 8, Hep3B; type: cell-based; conditions: Homo sapiens, 72 hours
Experimental: as §1, §2, §3, §4, §5, §6

HCT116 = test: CellTiter-Glo IG50, Example 8, HCT116; type: cell-based; conditions: Homo sapiens, HCT-116, HCT116, 72 hours
Experimental: as §1, §2, §3, §4, §5, §6

HT-29 = test: CellTiter-Glo IG50, Example 8, HT-29; type: cell-based; conditions: Homo sapiens, HT-29, 72 hours
Experimental: as §1, §2, §3, §4, §5, §6

LoVo = test: CellTiter-Glo IG50, Example 8, LoVo; type: cell-based; conditions: Homo sapiens, 72 hours
Experimental: as §1, §2, §3, §4, §5, §6

MCF-7 = test: CellTiter-Glo IG50, Example 8, MCF-7; type: cell-based; conditions: Homo sapiens, MCF7, MCF-7, 72 hours
Experimental: as §1, §2, §3, §4, §5, §6

MDA-MB-231 = test: CellTiter-Glo IG50, Example 8, MDA-MB-231; type: cell-based; conditions: Homo sapiens, MDA-MB-231, 72 hours
Experimental: as §1, §2, §3, §4, §5, §6

T47D = test: CellTiter-Glo IG50, Example 8, T47D; type: cell-based; conditions: Homo sapiens, 72 hours
Experimental: as §1, §2, §3, §4, §5, §6

AGS = test: CellTiter-Glo IG50, Example 8, AGS; type: cell-based; conditions: Homo sapiens, 72 hours
Experimental: as §1, §2, §3, §4, §5, §6

MKN45 = test: CellTiter-Glo IG50, Example 8, MKN45; type: cell-based; conditions: Homo sapiens, MKN-45, MKN45, 72 hours
Experimental: as §1, §2, §3, §4, §5, §6

KATO III = test: CellTiter-Glo IG50, Example 8, KATO III; type: cell-based; conditions: Homo sapiens, 72 hours
Experimental: as §1, §2, §3, §4, §5, §6

HepG2 [4] = test: CellTiter-Glo IG50, Example 9 HCC panel, HepG2; type: cell-based; conditions: Homo sapiens, HepG2, 72 hours
Experimental: as §3, §4, §5, §6, §2
(§7) Following the cell culture protocol and data analysis methods described in Example 8, the following IG50 results (in μM) were observed: […]

Hep3B [5] = test: CellTiter-Glo IG50, Example 9 HCC panel, Hep3B; type: cell-based; conditions: Homo sapiens, 72 hours
Experimental: as §3, §4, §5, §6, §2, §7

PLC/PRF/5 [6] = test: CellTiter-Glo IG50, Example 9 HCC panel, PLC/PRF/5; type: cell-based; conditions: Homo sapiens, PLC/PRF/5, 72 hours
Experimental: as §3, §4, §5, §6, §2, §7

HUH7 [7] = test: CellTiter-Glo IG50, Example 9 HCC panel, HUH7; type: cell-based; conditions: Homo sapiens, Huh-7, HUH7, 72 hours
Experimental: as §3, §4, §5, §6, §2, §7

JHH5 [8] = test: CellTiter-Glo IG50, Example 9 HCC panel, JHH5; type: cell-based; conditions: JHH5, 72 hours
Experimental: as §3, §4, §5, §6, §2, §7

PBMC [9] = test: CellTiter-Glo IG50, Example 9 HCC panel, PBMC; type: cell-based; conditions: 72 hours
Experimental: as §3, §4, §5, §6, §2, §7

SNU878 [10] = test: CellTiter-Glo IG50, Example 9 HCC panel, SNU878; type: cell-based; conditions: SNU878, 72 hours
Experimental: as §3, §4, §5, §6, §2, §7

HepG2 [11] = test: CellTiter-Glo IG50, Example 10 HCC panel, HepG2; type: cell-based; conditions: Homo sapiens, HepG2, 72 hours
Experimental: as §3, §4, §5, §6, §2
(§8) Following the cell culture protocol and data analysis method described in Example 8, the following IG50 results (in μM) were observed: […]

Hep3B [12] = test: CellTiter-Glo IG50, Example 10 HCC panel, Hep3B; type: cell-based; conditions: Homo sapiens, 72 hours
Experimental: as §3, §4, §5, §6, §2, §8

PLC/PRF/5 [13] = test: CellTiter-Glo IG50, Example 10 HCC panel, PLC/PRF/5; type: cell-based; conditions: Homo sapiens, PLC/PRF/5, 72 hours
Experimental: as §3, §4, §5, §6, §2, §8

HUH7 [14] = test: CellTiter-Glo IG50, Example 10 HCC panel, HUH7; type: cell-based; conditions: Homo sapiens, Huh-7, HUH7, 72 hours
Experimental: as §3, §4, §5, §6, §2, §8

JHH5 [15] = test: CellTiter-Glo IG50, Example 10 HCC panel, JHH5; type: cell-based; conditions: JHH5, 72 hours
Experimental: as §3, §4, §5, §6, §2, §8

PBMC [16] = test: CellTiter-Glo IG50, Example 10 HCC panel, PBMC; type: cell-based; conditions: 72 hours
Experimental: as §3, §4, §5, §6, §2, §8

SNU878 [17] = test: CellTiter-Glo IG50, Example 10 HCC panel, SNU878; type: cell-based; conditions: SNU878, 72 hours
Experimental: as §3, §4, §5, §6, §2, §8

COc1cc(OC)c2cc3c(=O)[nH]c(=O)nc-3oc2c1 [compound 14, 6,8-dimethoxy-2H-chromeno[2,3-d]pyrimidine-2,4(3H)-dione]
IC50 (c-Rel protein): < 1 µM
IC50 (NF-κB): 8.2 µM

CCCCCCOc1ccc2cc3c(=O)[nH]c(=O)nc-3oc2c1Cl [IT-848]
IC50 (Capan-1): > 16 µM
IC50 (PANC-1): 9.88 µM
IC50 (MIAPACA-2): > 16 µM
IC50 (PLC/PRF/5 [1]): > 16 µM
IC50 (HepG2 [2]): 6.7 µM
IC50 (Hep3B [3]): 2.43 µM
IC50 (HCT116): > 16 µM
IC50 (HT-29): > 16 µM
IC50 (LoVo): 5.07 µM
IC50 (MCF-7): 5.19 µM
IC50 (MDA-MB-231): 2.35 µM
IC50 (T47D): 6.14 µM
IC50 (AGS): 7.67 µM
IC50 (MKN45): > 16 µM
IC50 (KATO III): > 16 µM
IC50 (HepG2 [4]): 5.84 µM
IC50 (Hep3B [5]): 3.51 µM
IC50 (PLC/PRF/5 [6]): > 16 µM
IC50 (HUH7 [7]): 4.25 µM
IC50 (JHH5 [8]): 12.9 µM
IC50 (PBMC [9]): 1.19 µM
IC50 (SNU878 [10]): 14.6 µM
IC50 (HepG2 [11]): 9.95 µM
IC50 (Hep3B [12]): 6.09 µM
IC50 (PLC/PRF/5 [13]): > 16 µM
IC50 (HUH7 [14]): 7.72 µM
IC50 (JHH5 [15]): 13.4 µM
IC50 (PBMC [16]): 3.63 µM
IC50 (SNU878 [17]): > 16 µM
